{"source": "patent US20240182465A1", "about": "(GENFLEET THERAPEUTICS (SHANGHAI) INC., priority 2021, published 2024)", "key": {"HPK1 [1]": {"target": "HPK1 (Homo sapiens, UniProt Q92918)", "assay": "SLP76 phosphorylation assay (intracellular HPK1 inhibitory activity, p-SLP76 Ser376 sandwich ELISA)", "conditions": "p-SLP76 IC50(nM), Jurkat, Clone E6-1 cells; 1 h compound pre-incubation, anti-CD3 beads stimulation 20 min; SLP76 phosphorylation at S376"}, "HPK1 [2]": {"target": "T1, HPK1 (Homo sapiens, UniProt Q92918)", "T1 sequence (Q92918 1-346 limits assumed)": "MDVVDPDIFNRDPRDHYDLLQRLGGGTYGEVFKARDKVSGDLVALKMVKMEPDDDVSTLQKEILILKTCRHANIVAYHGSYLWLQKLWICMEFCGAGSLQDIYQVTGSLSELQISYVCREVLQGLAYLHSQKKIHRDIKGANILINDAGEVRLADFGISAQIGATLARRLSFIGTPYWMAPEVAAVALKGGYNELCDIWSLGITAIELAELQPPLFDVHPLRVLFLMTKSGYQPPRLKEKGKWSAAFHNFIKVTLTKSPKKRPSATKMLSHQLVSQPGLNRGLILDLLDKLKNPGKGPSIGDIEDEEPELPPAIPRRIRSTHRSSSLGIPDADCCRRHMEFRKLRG", "assay": "HPK1 kinase activity assay (ADP-Glo)", "conditions": "HPK1 Kinase activity IC50 (nM), 1 nM HPK1, 10 μM ATP, 0.1 μg/μL MBP"}}, "data": [{"compound": "Cc1c[nH]c2ncc(-c3cc4c(c([C@@H]5CCCN5)c3)CN(c3ccncn3)CC4)cc12", "note": "[Compound Z315, (S)-6-(3-methyl-1H-pyrrolo[2,3-b]pyridin-5-yl)-2-(pyrimidin-4-yl)-8-(pyrrolidin-2-yl)-1,2,3,4-tetrahydroisoquinoline]", "values": [{"measurement": "IC50", "setting": "HPK1 [1]", "value": 225, "unit": "nM"}, {"measurement": "IC50", "setting": "HPK1 [2]", "value": 0.29, "unit": "nM"}]}, {"compound": "CC(C)c1c[nH]c2ncc(-c3cc4c(c([C@@H]5COCCN5)c3)CN(C(=O)C3(O)CC3)CC4)cc12", "note": "[Compound Z433, (R)-(1-hydroxycyclopropyl)(6-(3-isopropyl-1H-pyrrolo[2,3-b]pyridin-5-yl)-8-(morpholin-3-yl)-3,4-dihydroisoquinolin-2(1H)-yl)methanone]", "values": [{"measurement": "IC50", "setting": "HPK1 [1]", "value": 111, "unit": "nM"}, {"measurement": "IC50", "setting": "HPK1 [2]", "value": 0.22, "unit": "nM"}]}, {"compound": "Cc1c[nH]c2ncc(-c3cc4c(c([C@@H]5CCCN5)c3)CCN(C(=O)CC3CCOCC3)C4)cc12", "note": "[Compound Z311, 1-[7-(3-methyl-1H-pyrrolo[2,3-b]pyridin-5-yl)-5-[(2S)-tetrahydro-1H-pyrrol-2-yl]-1,2,3,4-tetrahydroisoquinolin-2-yl]-2-(3,4,5,6-tetrahydro-2H-pyran-4-yl)ethan-1-one]", "values": [{"measurement": "IC50", "setting": "HPK1 [1]", "value": 146, "unit": "nM"}, {"measurement": "IC50", "setting": "HPK1 [2]", "value": 0.56, "unit": "nM"}]}, {"compound": "Cc1nn(C)cc1C(=O)N1CCc2cc(-c3cnc4[nH]cc(C)c4c3)cc([C@@H]3CCCN3)c2C1", "note": "[Compound Z282, (S)-(1,3-dimethyl-1H-pyrazol-4-yl)(6-(3-methyl-1H-pyrrolo[2,3-b]pyridin-5-yl)-8-(pyrrolidin-2-yl)-3,4-dihydroisoquinolin-2(1H)-yl)methanone]", "values": [{"measurement": "IC50", "setting": "HPK1 [1]", "value": 471, "unit": "nM"}, {"measurement": "IC50", "setting": "HPK1 [2]", "value": 0.38, "unit": "nM"}]}, {"compound": "Cc1c[nH]c2ncc(-c3cc4c(c([C@@H]5CCCN5)c3)CN(C(=O)N3CC5CCC(C3)O5)CC4)cc12", "note": "[Compound Z389, (8-oxa-3-azabicyclo[3.2.1]octan-3-yl)(6-(3-methyl-1H-pyrrolo[2,3-b]pyridin-5-yl)-8-((S)-pyrrolidin-2-yl)-3,4-dihydroisoquinolin-2(1H)-yl)methanone]", "values": [{"measurement": "IC50", "setting": "HPK1 [1]", "value": 47.1, "unit": "nM"}, {"measurement": "IC50", "setting": "HPK1 [2]", "value": 0.21, "unit": "nM"}]}, {"compound": "Cc1c[nH]c2ncc(-c3cc4c(c([C@@H]5CCCN5)c3)CN(C(=O)C3(O)CCOCC3)CC4)cc12", "note": "[Compound Z244, (S)-(4-hydroxytetrahydro-2H-pyran-4-yl)(6-(3-methyl-11H-pyrrolo[2,3-b]pyridin-5-yl)-8-(pyrrolidin-2-yl)-3,4-dihydroisoquinolin-2(1H)-yl)methanone]", "values": [{"measurement": "IC50", "setting": "HPK1 [1]", "value": 96.6, "unit": "nM"}, {"measurement": "IC50", "setting": "HPK1 [2]", "value": 0.35, "unit": "nM"}]}, {"compound": "Cc1c[nH]c2ncc(-c3cc4c(c([C@@H]5CCCN5)c3)CCN(C3CCOCC3)C4)cc12", "note": "[Compound Z401, (S)-7-(3-methyl-1H-pyrrolo[2,3-b]pyridin-5-yl)-5-(pyrrolidin-2-yl)-2-(tetrahydro-2H-pyran-4-yl)-1,2,3,4-tetrahydroisoquinoline]", "values": [{"measurement": "IC50", "setting": "HPK1 [1]", "value": 462, "unit": "nM"}, {"measurement": "IC50", "setting": "HPK1 [2]", "value": 3.19, "unit": "nM"}]}, {"compound": "Cc1c[nH]c2ncc(-c3cc4c(c([C@@H]5CCCN5)c3)CN(c3ccncc3)CC4)cc12", "note": "[Compound Z291, (S)-6-(3-methyl-1H-pyrrolo[2,3-b]pyridin-5-yl)-2-(pyridin-4-yl)-8-(pyrrolidin-2-yl)-1,2,3,4-tetrahydroisoquinoline]", "values": [{"measurement": "IC50", "setting": "HPK1 [1]", "value": 162, "unit": "nM"}, {"measurement": "IC50", "setting": "HPK1 [2]", "value": 0.6, "unit": "nM"}]}, {"compound": "COc1cc(C(=O)N2CCc3cc(-c4cnc5[nH]cc(C)c5c4)cc([C@@H]4CCCN4)c3C2)ccn1", "note": "[Compound Z215, (S)-(6-(3-methyl-1H-pyrrolo[2,3-b]pyridin-5-yl)-8-(pyrrolidin-2-yl)-3,4-dihydroisoquinolin-2(1H)-yl) (2-methoxypyridin-4-yl)methanone]", "values": [{"measurement": "IC50", "setting": "HPK1 [1]", "value": 444, "unit": "nM"}, {"measurement": "IC50", "setting": "HPK1 [2]", "value": 0.51, "unit": "nM"}]}, {"compound": "Cc1c[nH]c2ncc(-c3cc4c(c([C@@H]5CCCN5)c3)CN(C(=O)[C@@H](O)c3ccccc3)CC4)cc12", "note": "[Compound Z290, (S)-2-hydroxy-1-(6-(3-methyl-1H-pyrrolo[2,3-b]pyridin-5-yl)-8-((S)-pyrrolidin-2-yl)-3,4-dihydroisoquinolin-2(1H)-yl)-2-acetophenone]", "values": [{"measurement": "IC50", "setting": "HPK1 [1]", "value": 272, "unit": "nM"}, {"measurement": "IC50", "setting": "HPK1 [2]", "value": 0.77, "unit": "nM"}]}, {"compound": "Cc1c[nH]c2ncc(-c3cc4c(c([C@@H]5CCCN5)c3)CN(C(=O)C(C)(C)O)CC4)cc12", "note": "[Compound Z216, (S)-2-hydroxy-2-methyl-1-(6-(3-methyl-11H-pyrrolo[2,3-b]pyridin-5-yl)-8-(pyrrolidin-2-yl)-3,4-dihydroisoquinolin-2(1H)-yl)propan-1-one]", "values": [{"measurement": "IC50", "setting": "HPK1 [1]", "value": 108, "unit": "nM"}, {"measurement": "IC50", "setting": "HPK1 [2]", "value": 0.41, "unit": "nM"}]}, {"compound": "Cc1c[nH]c2ncc(-c3cc4c(c([C@@H]5CCCN5)c3)CN(C(=O)C3CC3)CC4)cc12", "note": "[Compound Z122, (S)-1-(6-(3-methyl-1H-pyrrolo[2,3-b]pyridin-5-yl)-8-(pyrrolidin-2-yl)-3,4-dihydroisoquinolin-2(1H)-yl)cyclopropyl methyl ketone]", "values": [{"measurement": "IC50", "setting": "HPK1 [1]", "value": 179, "unit": "nM"}, {"measurement": "IC50", "setting": "HPK1 [2]", "value": 0.71, "unit": "nM"}]}, {"compound": "Cc1c[nH]c2ncc(-c3cc4c(c(CNCC5CC5)c3)COCC4)cc12", "note": "[Compound Z112, 1-cyclopropyl-N-((6-(3-methyl-11H-pyrrolo[2,3-b]pyridin-5-yl)isochroman-8-yl)methyl)methanamine]", "values": [{"measurement": "IC50", "setting": "HPK1 [1]", "value": 305, "unit": "nM"}, {"measurement": "IC50", "setting": "HPK1 [2]", "value": 3.55, "unit": "nM"}]}, {"compound": "Cc1c[nH]c2ncc(-c3cc4c(c([C@@H]5CCCN5)c3)CCN(C(=O)C3(O)CC3)C4)cc12", "note": "[Compound Z310, (S)-(1-hydroxycyclopropyl)(7-(3-methyl-1H-pyrrolo[2,3-b]pyridin-5-yl)-5-(pyrrolidin-2-yl)-3,4-dihydroisoquinolin-2(1H)-yl)methanone]", "values": [{"measurement": "IC50", "setting": "HPK1 [1]", "value": 567, "unit": "nM"}, {"measurement": "IC50", "setting": "HPK1 [2]", "value": 1.79, "unit": "nM"}]}, {"compound": "Cc1c[nH]c2ncc(-c3cc4c(c([C@@H]5COCCN5)c3)CN(C(=O)[C@@](C)(O)C(F)(F)F)CC4)cc12", "note": "[Compound Z317, (R)-3,3,3-trifluoro-2-hydroxy-2-methyl-1-[6-(3-methyl-1H-pyrrolo[2,3-b]pyridin-5-yl)-8-[(R)-morpholin-3-yl]-3,4-dihydroisoquinolin-2(1H)-yl]propan-1-one]", "values": [{"measurement": "IC50", "setting": "HPK1 [1]", "value": 200, "unit": "nM"}, {"measurement": "IC50", "setting": "HPK1 [2]", "value": 0.88, "unit": "nM"}]}, {"compound": "CC(=O)N1CCc2cc(-c3cnc4[nH]cc(C)c4c3)cc(C3CCCN3)c2C1", "note": "(centres unmarked) [Compound Z98, 1-(6-(3-methyl-1H-pyrrolo[2,3-b]pyridin-5-yl)-8(pyrrolidin-2-yl)-3,4-dihydroisoquinolin-2(1H)-yl)ethanone]", "values": [{"measurement": "IC50", "setting": "HPK1 [1]", "value": 237, "unit": "nM"}, {"measurement": "IC50", "setting": "HPK1 [2]", "value": 0.9, "unit": "nM"}]}, {"compound": "COCC(=O)N1CCc2cc(-c3cnc4[nH]cc(C(C)C)c4c3)cc([C@@H]3CCCN3)c2C1", "note": "[Compound Z404]", "values": [{"measurement": "IC50", "setting": "HPK1 [1]", "value": 113, "unit": "nM"}, {"measurement": "IC50", "setting": "HPK1 [2]", "value": 0.32, "unit": "nM"}]}, {"compound": "Cc1c[nH]c2ncc(-c3cc4c(c(C5CCCN5)c3)COCC4)cc12", "note": "(centres unmarked) [Compound Z97, 3-methyl-5-(8-(pyrrolidin-2-yl)isochroman-6-yl)-1H-pyrrolo[2,3-b]pyridine]", "values": [{"measurement": "IC50", "setting": "HPK1 [1]", "value": 377, "unit": "nM"}, {"measurement": "IC50", "setting": "HPK1 [2]", "value": 1.54, "unit": "nM"}]}, {"compound": "CCNC(=O)N1CCc2cc(-c3cnc4[nH]cc(C(C)C)c4c3)cc([C@@H]3COCCN3)c2C1", "note": "[Compound Z429]", "values": [{"measurement": "IC50", "setting": "HPK1 [1]", "value": 159, "unit": "nM"}, {"measurement": "IC50", "setting": "HPK1 [2]", "value": 0.41, "unit": "nM"}]}, {"compound": "Nc1ncc(-c2cc3c(c([C@@H]4CCCN4)c2)COCC3)cc1-c1nccs1", "note": "[Compound Z238, (S)-5-(8-(pyrrolidin-2-yl)isochroman-6-yl)-3-(thiazol-2-yl)pyridin-2-amine]", "values": [{"measurement": "IC50", "setting": "HPK1 [1]", "value": 354, "unit": "nM"}, {"measurement": "IC50", "setting": "HPK1 [2]", "value": 1.48, "unit": "nM"}]}, {"compound": "Cc1c[nH]c2ncc(-c3cc4c(c([C@@H]5CCCN5)c3)CN(C(=O)c3ccncc3)CC4)cc12", "note": "[Compound Z124, (S)-(6-(3-methyl-1H-pyrrolo[2,3-b]pyridin-5-yl)-8-(pyrrolidin-2-yl)-3,4-dihydroisoquinolin-2(1H)-yl) (pyridin-4-yl)methanone]", "values": [{"measurement": "IC50", "setting": "HPK1 [1]", "value": 260, "unit": "nM"}, {"measurement": "IC50", "setting": "HPK1 [2]", "value": 0.33, "unit": "nM"}]}, {"compound": "N#Cc1c[nH]c2ncc(-c3cc4c(c([C@@H]5CCCN5)c3)COCC4)cc12", "note": "[Compound Z190, (S)-5-(8-(pyrrolidin-2-yl)isochroman-6-yl)-1H-pyrrolo[2,3-b]pyridine-3-carbonitrile]", "values": [{"measurement": "IC50", "setting": "HPK1 [1]", "value": 494, "unit": "nM"}, {"measurement": "IC50", "setting": "HPK1 [2]", "value": 1.89, "unit": "nM"}]}]}
